According to patent US8993606B2, “Oral formulations for treating metal overload” (FerroKin BioSciences, Inc., priority 2011, dated 2015):
Where two headings read alike, the source gives them in different places.

Assay: Example 4: seven-day dosing in iron-overloaded human subjects (PK, tolerability)
Assay type: in vivo
Conditions: for CL renal / half-life / Cmax / Tmax / AUC(0-t) / Vd/F: human; for CL renal: plasma and urine; for half-life / Cmax / Tmax / AUC(0-t) / Vd/F: plasma; for AUC(0-t): read-out: AUC(0-24); for Vd/F: read-out: Vz/F
Experimental: A dose-escalation study to assess the safety, tolerability, pharmacokinetics and pharmacodynamics of Compound 1, which correspond to a capsule formulation of (S)-3′-(OH)-DADFT-PE was conducted in 16 adult patients with iron overloaded consequent to transfusions. […] Compound 1 was supplied as capsules containing 50 mg, 100 mg, or 250 mg. The capsules were manufactured in accordance with Annex 13 and the principle of cGMP at Aptuit (10245 Hickman Mills Drive, Kansas City, Mo. 64137).
Patients 18 years or older with documented transfusional iron overload requiring chronic treatment with deferiprone, deferasirox or deferoxamine were eligible. Causes of iron overload included β-thalassemia major, α-thalassemia or α-thalassemia hydrops)(α°α°, sickle cell disease, and congenital dyserythropoietic anemia. Each of the four cohorts contained four patients. For the purposes of this study, transfusion dependence was defined as requiring eight or more transfusions per year. The iron burden inclusion criteria were defined as: (i) liver iron concentration greater than 2 mg/g (dry weight, liver) as determined by R2 magnetic resonance imaging; (ii) a cardiac magnetic resonance imaging T2* greater than 12 ms; and (iii) serum ferritin in excess of 600 ng/mL. Eligible patients who consented to participation in the study discontinued their regular chelation therapy for up to 5 days during a wash-out period prior to their first dose of Compound 1. Patients received Compound 1 in capsules taken orally in a fasted state.
In this study, a standard pharmacokinetic protocol of plasma sampling was performed throughout the 7 days of dosing and continuing for 3 days after the last dose on day 7. Actual blood sampling and urine collection times were used in all pharmacokinetic analyses. […] A formally validated bioanalytical method for quantifying total Compound 1 in human plasma and urine was developed. The drug was extracted from plasma using solid phase extraction and analyzed using high performance liquid chromatography with tandem mass spectrometric determination, and d3-[Compound 1] as an internal standard. The method was used to measure drug (MW 400) over the range of 5 to 2000 ng/mL (12.5-5000 nM) and at sample dilutions of 20- to 50-fold.
Pharmacokinetic parameters for Compound 1 were estimated using non-compartmental analysis. Only plasma and urine concentrations greater than the lower limits of quantitation (LOQ, 5 ng/mL in plasma, 5 ng/mL in urine) for the assays were used in the pharmacokinetic analysis.
Plasma concentrations, blood sampling times, urine concentrations, urine volumes, and the amount excreted in each interval, and pharmacokinetic parameters were listed by dose group and patient. Plasma concentrations and pharmacokinetic parameters were summarized by dose group using descriptive statistics: linearity with respect to Cmax and AUC(0-24) was assessed using the power model, i.e. P=a×Doseb, where P represents the parameter and a and b are constants. A log-log plot of P versus Dose is linear and a value of b of ≈1 indicates linearity. The equation was fitted to the individual patients' data using non-linear least squares regression. Parameters were compared among doses using descriptive statistics. Due to the small numbers of patients per panel, no formal statistical analyses were done.

COCCOCCOCCOc1cccc(C2=N[C@@](C)(C(=O)O)CS2)c1O [Compound 1, (S)-4,5-Dihydro-2-[2-hydroxy-3-(3,6,9-trioxadecyloxy)phenyl]-4-methyl-4-thiazolecarboxylate magnesium hydroxide]
CL/F (3 mg/kg daily 7 days oral): 162 ± 85 mL/min | CL/F (8 mg/kg daily 7 days oral): 225 ± 142 mL/min | CL/F (16 mg/kg daily 7 days oral): 206 ± 78.4 mL/min | CL/F (32 mg/kg daily 7 days oral): 172 ± 60.1 mL/min | serious adverse events associated with the drug (3-32 mg/kg daily 7 days): no serious adverse events | dose proportionality of plasma concentrations (all four doses 3-32 mg/kg): dose-proportional, linear pharmacokinetics | tolerability (daily for 7 days at doses up to 32 mg/kg): well tolerated at all dose levels | CL renal (3 mg/kg daily 7 days oral): 75.2 ± 46.8 mL/min | CL renal (8 mg/kg daily 7 days oral): 105 ± 62.9 mL/min | CL renal (16 mg/kg daily 7 days oral): 83.2 ± 36.5 mL/min | CL renal (32 mg/kg daily 7 days oral): 73.6 ± 37.8 mL/min | half-life (oral, 40 mg/kg, 5th cohort of four patients, read-out: Mean half life (t½) (converted)): 1600 min | half-life (oral, across doses 3-32 mg/kg, read-out: t½ (converted)): 1150 min | Cmax (3 mg/kg daily 7 days oral): 5910 ± 2300 ng/mL | Tmax (3 mg/kg daily 7 days oral): 1.31 h | AUC(0-t) (3 mg/kg daily 7 days oral): 19500 ± 11300 ng·h/mL | Vd/F (3 mg/kg daily 7 days oral): 185 ± 84.1 L | half-life (3 mg/kg daily 7 days oral, read-out: t½ (converted)): 972 ± 499 min | Cmax (8 mg/kg daily 7 days oral): 15000 ± 4440 ng/mL | Tmax (8 mg/kg daily 7 days oral): 1.18 h | AUC(0-t) (8 mg/kg daily 7 days oral): 44900 ± 30800 ng·h/mL | Vd/F (8 mg/kg daily 7 days oral): 311 ± 137 L | half-life (8 mg/kg daily 7 days oral, read-out: t½ (converted)): 1250 ± 678 min | Cmax (16 mg/kg daily 7 days oral): 38200 ng/mL | Tmax (16 mg/kg daily 7 days oral): 1 h | AUC(0-t) (16 mg/kg daily 7 days oral): 92300 ± 36600 ng·h/mL | Vd/F (16 mg/kg daily 7 days oral): 339 ± 166 L | half-life (16 mg/kg daily 7 days oral, read-out: t½ (converted)): 1280 ± 708 min | Cmax (32 mg/kg daily 7 days oral): 60200 ± 27500 ng/mL | Tmax (32 mg/kg daily 7 days oral): 1.49 h | AUC(0-t) (32 mg/kg daily 7 days oral): 158000 ± 43500 ng·h/mL | Vd/F (32 mg/kg daily 7 days oral): 214 ± 2.94 L | half-life (32 mg/kg daily 7 days oral, read-out: t½ (converted)): 1120 ± 269 min
